This is an account of results in ChEMBL document CHEMBL1124620, “New 1,4-dihydropyridine derivatives combining calcium antagonism and alpha-adrenolytic properties” (J Med Chem, 1989).

Experiment [1] addresses T1, Adrenergic receptor alpha-2 (Homo sapiens, UniProt P08913+P18825+P18089).
T1 sequence (P08913 whole entry): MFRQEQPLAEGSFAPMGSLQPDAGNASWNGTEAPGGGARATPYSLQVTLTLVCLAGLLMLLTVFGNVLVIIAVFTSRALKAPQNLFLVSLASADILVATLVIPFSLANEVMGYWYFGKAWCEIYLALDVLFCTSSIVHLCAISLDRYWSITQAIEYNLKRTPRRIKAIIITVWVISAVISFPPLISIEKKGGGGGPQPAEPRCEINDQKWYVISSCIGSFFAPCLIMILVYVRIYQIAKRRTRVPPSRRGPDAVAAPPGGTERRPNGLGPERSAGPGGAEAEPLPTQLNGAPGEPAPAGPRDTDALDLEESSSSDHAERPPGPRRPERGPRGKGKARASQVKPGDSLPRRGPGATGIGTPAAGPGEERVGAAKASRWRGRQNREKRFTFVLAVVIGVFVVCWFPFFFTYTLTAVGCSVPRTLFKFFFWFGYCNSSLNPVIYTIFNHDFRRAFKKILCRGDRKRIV
T1 sequence (P18825 whole entry): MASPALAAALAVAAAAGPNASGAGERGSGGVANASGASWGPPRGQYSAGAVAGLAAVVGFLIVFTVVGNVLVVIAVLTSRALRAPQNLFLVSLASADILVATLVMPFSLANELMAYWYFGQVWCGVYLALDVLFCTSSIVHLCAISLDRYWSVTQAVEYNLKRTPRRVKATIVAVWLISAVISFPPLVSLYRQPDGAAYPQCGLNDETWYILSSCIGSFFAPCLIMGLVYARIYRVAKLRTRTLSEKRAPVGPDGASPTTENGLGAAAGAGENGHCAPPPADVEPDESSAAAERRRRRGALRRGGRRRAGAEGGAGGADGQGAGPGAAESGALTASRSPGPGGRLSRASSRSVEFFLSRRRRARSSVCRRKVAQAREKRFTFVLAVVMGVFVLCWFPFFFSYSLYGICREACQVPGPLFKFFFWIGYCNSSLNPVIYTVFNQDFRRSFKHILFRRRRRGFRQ
T1 sequence (P18089 whole entry): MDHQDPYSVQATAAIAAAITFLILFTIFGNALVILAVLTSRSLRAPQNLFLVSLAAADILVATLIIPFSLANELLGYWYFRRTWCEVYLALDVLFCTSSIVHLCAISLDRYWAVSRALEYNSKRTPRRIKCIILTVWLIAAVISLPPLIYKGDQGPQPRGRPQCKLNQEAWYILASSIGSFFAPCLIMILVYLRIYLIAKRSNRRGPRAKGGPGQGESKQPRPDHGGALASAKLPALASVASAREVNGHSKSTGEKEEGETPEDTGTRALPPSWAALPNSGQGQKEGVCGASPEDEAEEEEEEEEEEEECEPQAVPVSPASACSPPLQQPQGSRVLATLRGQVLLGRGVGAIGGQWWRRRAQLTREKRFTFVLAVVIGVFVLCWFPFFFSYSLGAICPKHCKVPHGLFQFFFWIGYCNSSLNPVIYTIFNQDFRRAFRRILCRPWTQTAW
The experiment in a line: Alpha-2-adrenolytic activity was assessed in vitro from the ability to inhibit norepinephrine binding to guinea pig vas deferens. Further details: species or system Cavia porcellus. The conditions noted are these: target entry is the homologue from another species.

For experiment [2], the target named is T2, Adrenergic receptor alpha-2 (Rattus norvegicus, UniProt P22086+P19328+P22909).
T2 sequence (P22086 whole entry): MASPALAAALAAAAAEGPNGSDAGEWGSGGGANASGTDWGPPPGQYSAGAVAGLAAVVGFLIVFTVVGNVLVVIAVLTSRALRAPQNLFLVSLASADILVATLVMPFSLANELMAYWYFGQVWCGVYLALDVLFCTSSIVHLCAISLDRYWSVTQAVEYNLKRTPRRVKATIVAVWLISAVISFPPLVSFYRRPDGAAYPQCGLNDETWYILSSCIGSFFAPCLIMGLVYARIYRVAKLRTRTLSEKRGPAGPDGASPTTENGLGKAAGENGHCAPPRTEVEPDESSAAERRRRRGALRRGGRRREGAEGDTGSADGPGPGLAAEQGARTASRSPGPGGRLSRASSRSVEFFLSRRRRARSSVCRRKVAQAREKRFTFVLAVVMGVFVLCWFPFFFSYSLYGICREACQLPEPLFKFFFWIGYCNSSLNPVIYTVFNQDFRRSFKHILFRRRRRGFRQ
T2 sequence (P19328 whole entry): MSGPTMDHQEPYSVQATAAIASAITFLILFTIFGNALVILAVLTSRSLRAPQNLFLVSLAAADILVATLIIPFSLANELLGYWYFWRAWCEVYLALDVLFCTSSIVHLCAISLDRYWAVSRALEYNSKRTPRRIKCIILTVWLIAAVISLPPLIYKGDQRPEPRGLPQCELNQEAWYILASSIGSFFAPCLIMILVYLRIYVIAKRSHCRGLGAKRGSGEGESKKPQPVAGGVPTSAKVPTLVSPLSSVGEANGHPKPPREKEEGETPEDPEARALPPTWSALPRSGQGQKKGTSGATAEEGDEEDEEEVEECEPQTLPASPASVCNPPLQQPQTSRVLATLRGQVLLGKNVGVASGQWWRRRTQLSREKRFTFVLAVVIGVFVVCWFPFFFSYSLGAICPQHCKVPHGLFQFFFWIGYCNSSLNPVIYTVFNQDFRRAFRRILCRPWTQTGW
T2 sequence (P22909 whole entry): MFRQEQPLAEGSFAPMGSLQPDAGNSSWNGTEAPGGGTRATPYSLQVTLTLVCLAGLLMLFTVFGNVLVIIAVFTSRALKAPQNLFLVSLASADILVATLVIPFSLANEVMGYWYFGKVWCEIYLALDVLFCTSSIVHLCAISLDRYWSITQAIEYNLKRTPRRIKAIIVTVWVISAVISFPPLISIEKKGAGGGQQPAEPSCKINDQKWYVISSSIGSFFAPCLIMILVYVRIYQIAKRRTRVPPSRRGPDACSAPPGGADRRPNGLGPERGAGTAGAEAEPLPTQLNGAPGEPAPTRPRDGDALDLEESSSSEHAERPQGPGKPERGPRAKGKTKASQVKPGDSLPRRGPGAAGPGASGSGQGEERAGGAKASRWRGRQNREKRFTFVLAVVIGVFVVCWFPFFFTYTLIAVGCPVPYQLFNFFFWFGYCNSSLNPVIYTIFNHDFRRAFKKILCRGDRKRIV
Kind of experiment: Alpha-2-adrenolytic activity was assessed from the ability to inhibit [3H]yohimbine binding to rat cerebral cortex preparation. It is filed as tissue-based.

Regarding `CC1=NC(C)=C(C(=O)OC(C)CN(C)CC2COc3ccccc3O2)C(c2cccc([N+](=O)[O-])c2)/C1=C(\O)OC(C)C.Cl` (configuration not stated), the 50% inhibitory concentration (IC50) (usually the concentration needed to halve the response being measured) in experiment [1] was >> 1e-6 M; in experiment [2] it was 2 µM.
